Measured values reported in ChEMBL document CHEMBL1201862, “PubChem BioAssay data set” (2004).
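These data come from cells grown in 96-well plates and exposed to compound for 48 hours at five concentrations. GI50: concentration for 50% inhibition of growth.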 The source made the active and inactive calls. No stated cut-off is given here; in the data, active = GI50 up to about 1.1 µM and inactive = higher.

Assays:
Test in all cases: NCI tumour cell line growth inhibition, 48 h
[1] = tested on: ACHN
[2] = tested on: COLO 205
[3] = tested on: IGROV-1
[4] = tested on: HOP-92
[5] = tested on: SNB-19
[6] = tested on: HT-29
[7] = tested on: DLD-1
[8] = tested on: UO-31
[9] = tested on: RPMI-8226
[10] = tested on: SF-539
[11] = tested on: OVCAR-3
[12] = tested on: HOP-18
[13] = tested on: HCT-116
[14] = tested on: M19-MEL
[15] = tested on: SK-MEL-28
[16] = tested on: UACC-62
[17] = tested on: DMS-273
[18] = tested on: NCI-H226
[19] = tested on: OVCAR-5
[20] = tested on: LOX IMVI
[21] = tested on: EKVX
[22] = tested on: XF498
[23] = tested on: KM12
[24] = tested on: NCI-H23
[25] = tested on: OVCAR-8
[26] = tested on: HCT-15
[27] = tested on: KM-20L2
[28] = tested on: SK-OV-3
[29] = tested on: K562
[30] = tested on: SR
[31] = tested on: SF-295
[32] = tested on: SK-MEL-2
[33] = tested on: DMS-114
[34] = tested on: NCI-H522
[35] = tested on: MOLT-4
[36] = tested on: Malme-3M
[37] = tested on: SN12C
[38] = tested on: RXF 393
[39] = tested on: U-251
[40] = tested on: OVCAR-4
[41] = tested on: HCC 2998
[42] = tested on: A549
[43] = tested on: SK-MEL-5
[44] = tested on: UACC-257
[45] = tested on: HOP-62
[46] = tested on: 786-0
[47] = tested on: NCI-H460
[48] = tested on: SNB-75
[49] = tested on: CAKI-1
[50] = tested on: SNB-78
[51] = tested on: LXFL 529
[52] = tested on: M14
[53] = tested on: TK-10
[54] = tested on: CCRF-CEM
[55] = tested on: SF-268
[56] = tested on: SW-620
[57] = tested on: HL-60
[58] = tested on: A498

**Q.** How did the GI50 [1] turn out when `O=C(Nc1nc2ccccc2n1Cc1ccccc1)NC12CC3CC(CC(C3)C1)C2` was run?
**A.** 44.7 µM (inactive)

**Q.** What about the GI50 [2] of the same compound?
**A.** 48.5 µM (inactive)

**Q.** And the GI50 [3]?
**A.** 75.3 µM (inactive)

**Q.** What about the GI50 [4] of the same compound?
**A.** 23 µM (inactive)

**Q.** What about the GI50 [5] of the same compound?
**A.** 44.1 µM (inactive)

**Q.** And the GI50 [6]?
**A.** > 100 µM (inactive)

**Q.** What about the GI50 [7] of the same compound?
**A.** 87.9 µM (inactive)

**Q.** And the GI50 [8]?
**A.** > 100 µM (inactive)

**Q.** What about the GI50 [9] of the same compound?
**A.** > 100 µM (inactive)

**Q.** What about the GI50 [10] of the same compound?
**A.** 36 µM (inactive)

**Q.** What about the GI50 [11] of the same compound?
**A.** 38.5 µM (inactive)

**Q.** What about the GI50 [12] of the same compound?
**A.** 44.8 µM (inactive)

**Q.** And the GI50 [13]?
**A.** 30.4 µM (inactive)

**Q.** What about the GI50 [14] of the same compound?
**A.** 61.4 µM (inactive)

**Q.** What about the GI50 [15] of the same compound?
**A.** 79.3 µM (inactive)

**Q.** And the GI50 [16]?
**A.** 41.9 µM (inactive)

**Q.** What about the GI50 [17] of the same compound?
**A.** 16.9 µM (inactive)

**Q.** And the GI50 [18]?
**A.** 51.6 µM (inactive)

**Q.** And the GI50 [19]?
**A.** > 100 µM (inactive)

**Q.** What about the GI50 [20] of the same compound?
**A.** 40.3 µM (inactive)

**Q.** What about the GI50 [21] of the same compound?
**A.** > 100 µM (inactive)

**Q.** And the GI50 [22]?
**A.** 17.8 µM (inactive)

**Q.** And the GI50 [23]?
**A.** > 100 µM (inactive)

**Q.** What about the GI50 [24] of the same compound?
**A.** 42.9 µM (inactive)

**Q.** And the GI50 [25]?
**A.** > 100 µM (inactive)

**Q.** What about the GI50 [26] of the same compound?
**A.** > 100 µM

**Q.** And the GI50 [27]?
**A.** > 100 µM (inactive)

**Q.** What about the GI50 [28] of the same compound?
**A.** 27.9 µM (inactive)

**Q.** What about the GI50 [29] of the same compound?
**A.** > 100 µM (inactive)

**Q.** And the GI50 [30]?
**A.** 80.2 µM (inactive)

**Q.** What about the GI50 [31] of the same compound?
**A.** 13.4 µM (inactive)

**Q.** What about the GI50 [32] of the same compound?
**A.** > 100 µM (inactive)

**Q.** And the GI50 [33]?
**A.** 57.3 µM (inactive)

**Q.** What about the GI50 [34] of the same compound?
**A.** 44.7 µM (inactive)

**Q.** What about the GI50 [35] of the same compound?
**A.** > 100 µM (inactive)

**Q.** And the GI50 [36]?
**A.** 39.6 µM (inactive)

**Q.** What about the GI50 [37] of the same compound?
**A.** 82.8 µM (inactive)

**Q.** What about the GI50 [38] of the same compound?
**A.** 19.5 µM (inactive)

**Q.** And the GI50 [39]?
**A.** 39 µM (inactive)

**Q.** What about the GI50 [40] of the same compound?
**A.** 20.7 µM (inactive)

**Q.** What about the GI50 [41] of the same compound?
**A.** > 100 µM (inactive)

**Q.** What about the GI50 [42] of the same compound?
**A.** 71.9 µM (inactive)

**Q.** What about the GI50 [43] of the same compound?
**A.** 54.6 µM (inactive)

**Q.** And the GI50 [44]?
**A.** > 100 µM (inactive)

**Q.** And the GI50 [45]?
**A.** 32.6 µM (inactive)

**Q.** And the GI50 [46]?
**A.** 24 µM (inactive)

**Q.** What about the GI50 [47] of the same compound?
**A.** 41 µM (inactive)

**Q.** What about the GI50 [48] of the same compound?
**A.** 22.4 µM (inactive)

**Q.** And the GI50 [49]?
**A.** 88.9 µM (inactive)

**Q.** And the GI50 [50]?
**A.** 19.8 µM (inactive)

**Q.** And the GI50 [51]?
**A.** 67.8 µM (inactive)

**Q.** And the GI50 [52]?
**A.** 92.5 µM (inactive)

**Q.** What about the GI50 [53] of the same compound?
**A.** 65.5 µM (inactive)

**Q.** What about the GI50 [54] of the same compound?
**A.** > 100 µM (inactive)

**Q.** What about the GI50 [55] of the same compound?
**A.** 14.4 µM (inactive)

**Q.** And the GI50 [56]?
**A.** > 100 µM (inactive)

**Q.** What about the GI50 [57] of the same compound?
**A.** > 100 µM (inactive)

**Q.** `COc1ccc2c(c1)CCc1c(-c3n[nH]c4c3CCc3cc(OC)ccc3-4)n[nH]c1-2` was tested. Which GI50 [1] did it give?
**A.** 29.9 µM (inactive)

**Q.** What about the GI50 [2] of the same compound?
**A.** 50.2 µM (inactive)

**Q.** What about the GI50 [3] of the same compound?
**A.** 48.6 µM (inactive)

**Q.** And the GI50 [4]?
**A.** 30.8 µM (inactive)

**Q.** What about the GI50 [5] of the same compound?
**A.** 76.9 µM (inactive)

**Q.** And the GI50 [6]?
**A.** 33.2 µM (inactive)

**Q.** And the GI50 [7]?
**A.** 54.5 µM (inactive)

**Q.** What about the GI50 [8] of the same compound?
**A.** 40.5 µM (inactive)

**Q.** And the GI50 [10]?
**A.** 24.1 µM (inactive)

**Q.** What about the GI50 [12] of the same compound?
**A.** 25.8 µM (inactive)

**Q.** And the GI50 [13]?
**A.** 34.1 µM (inactive)

**Q.** What about the GI50 [14] of the same compound?
**A.** 33 µM (inactive)

**Q.** What about the GI50 [15] of the same compound?
**A.** 33.8 µM (inactive)

**Q.** What about the GI50 [16] of the same compound?
**A.** 23.5 µM (inactive)

**Q.** And the GI50 [17]?
**A.** 17.4 µM (inactive)

**Q.** What about the GI50 [18] of the same compound?
**A.** 28.8 µM (inactive)

**Q.** And the GI50 [58]?
**A.** 27.6 µM (inactive)

**Q.** What about the GI50 [19] of the same compound?
**A.** > 100 µM (inactive)

**Q.** What about the GI50 [20] of the same compound?
**A.** 17.9 µM (inactive)

**Q.** What about the GI50 [21] of the same compound?
**A.** 31.3 µM (inactive)

**Q.** And the GI50 [22]?
**A.** 32.8 µM (inactive)

**Q.** And the GI50 [23]?
**A.** 33.9 µM (inactive)

**Q.** And the GI50 [24]?
**A.** 79.4 µM (inactive)

**Q.** And the GI50 [25]?
**A.** 37.8 µM (inactive)

**Q.** And the GI50 [26]?
**A.** 35.1 µM

**Q.** And the GI50 [27]?
**A.** 47.5 µM (inactive)

**Q.** And the GI50 [28]?
**A.** 6.25 µM (inactive)

**Q.** What about the GI50 [29] of the same compound?
**A.** 8.89 µM (inactive)

**Q.** And the GI50 [30]?
**A.** 38.1 µM (inactive)

**Q.** What about the GI50 [31] of the same compound?
**A.** 17.2 µM (inactive)

**Q.** What about the GI50 [32] of the same compound?
**A.** 43.9 µM (inactive)

**Q.** What about the GI50 [33] of the same compound?
**A.** 55.5 µM (inactive)

**Q.** And the GI50 [34]?
**A.** 20.2 µM (inactive)

**Q.** And the GI50 [35]?
**A.** 58.6 µM (inactive)

**Q.** And the GI50 [36]?
**A.** 37.9 µM (inactive)

**Q.** And the GI50 [37]?
**A.** 57.4 µM (inactive)

**Q.** What about the GI50 [39] of the same compound?
**A.** 49.1 µM (inactive)

**Q.** What about the GI50 [41] of the same compound?
**A.** > 100 µM (inactive)

**Q.** And the GI50 [42]?
**A.** 30.3 µM (inactive)

**Q.** What about the GI50 [43] of the same compound?
**A.** 30.8 µM (inactive)

**Q.** What about the GI50 [44] of the same compound?
**A.** 21.5 µM (inactive)

**Q.** And the GI50 [45]?
**A.** 24 µM (inactive)

**Q.** What about the GI50 [46] of the same compound?
**A.** 19 µM (inactive)

**Q.** And the GI50 [47]?
**A.** 39 µM (inactive)

**Q.** And the GI50 [48]?
**A.** 23.3 µM (inactive)

**Q.** And the GI50 [49]?
**A.** 24.4 µM (inactive)

**Q.** And the GI50 [50]?
**A.** 44.1 µM (inactive)

**Q.** What about the GI50 [51] of the same compound?
**A.** 33.1 µM (inactive)

**Q.** And the GI50 [52]?
**A.** 25.9 µM (inactive)

**Q.** And the GI50 [53]?
**A.** > 100 µM (inactive)

**Q.** And the GI50 [54]?
**A.** 26.1 µM (inactive)

**Q.** And the GI50 [55]?
**A.** 37.1 µM (inactive)

**Q.** And the GI50 [56]?
**A.** 17.9 µM (inactive)

**Q.** What about the GI50 [57] of the same compound?
**A.** 27.5 µM (inactive)
